# Laboratory results published in patent publication US20030207014A1, “Animal feed and additive for animal feed to control feed borne pathogens” (priority 2002, published 2003).
# Key:
# [1] = system: microbes present in animal feeds; assay: laboratory tests of anti-microbial action in animal feed
# Description: These properties make sodium percarbonate an ideal feed additive for animal feeds. In the preferred embodiments of the present invention sodium percarbonate is included in the feed formulations prior to the pellet forming process common to most animal feed processing procedures. […] This is due to the broad disinfection action of the sodium percarbonate upon all bacteria and the spores of bacteria, fungi, and algae.
# Such mammalian animal proteins have been banned throughout Europe although they continue to be used in other parts of the world. Otherwise the animal feeds in accordance with present invention are substantially the same as conventional animal feeds with the addition of sodium percarbonate.
# [2] = feeding of treated feed to livestock / poultry; type: in vivo
# Description: The preferred proportion of sodium percarbonate will vary for the specific animal feed composition and the specific animal consuming the feed as well as various environmental factors.
# [3] = stability under pressure steam sterilization; type: physicochemical
smiles,measurement,setting,value
O=C([O-])[O-].O=C([O-])[O-].OO.OO.OO.[Na+].[Na+].[Na+].[Na+] [sodium percarbonate],effectiveness depending on feed composition,[1]; animal feeds that do not include mammalian animal proteins,greatest
same,anti-microbial effectiveness,"[1]; laboratory tests, all bacteria and spores of bacteria, fungi, algae",effective against all microbes present in animal feeds
same,acceptance of treated feed,[2]; livestock,readily accepted
same,digestive reactions,"[2]; poultry, rates of 2-8% by weight in feed",no untold digestive reactions
same,stability,[3],very stable
